# In ChEMBL document CHEMBL1201862, “PubChem BioAssay data set” (2004):
# Calls of active or inactive are those of the source. For most assays here, no stated cut-off is given here; in the data, actives have a measured IC50 and inactives only a lower limit.
# Columns and labels:
# [1] = target: T1, Caspase-3 (Homo sapiens, UniProt P42574); format: functional
# T1 sequence (P42574 whole entry): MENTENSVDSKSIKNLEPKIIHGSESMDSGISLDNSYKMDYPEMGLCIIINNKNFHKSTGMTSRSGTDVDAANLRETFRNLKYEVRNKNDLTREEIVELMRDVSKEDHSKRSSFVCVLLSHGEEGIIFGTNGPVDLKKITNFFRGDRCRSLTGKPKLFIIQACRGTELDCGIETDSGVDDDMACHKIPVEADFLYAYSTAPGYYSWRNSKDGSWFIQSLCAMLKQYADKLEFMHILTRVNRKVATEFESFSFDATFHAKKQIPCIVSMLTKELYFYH
# [2] = tested on: A-375; test: MITF: Counter assay: A375 proliferation Measured in Cell-Based System Using Plate Reader - 2084-03_Inhibitor_Dose_DryPowder_Activity. [Related pubchem assays (depositor defined):AID488944]; format: functional; details: Homo sapiens
# [3] = target: T2, Microphthalmia-associated transcription factor (Homo sapiens, UniProt O75030); test: TRPM1 promoter luciferase signal decrease, dose response, MITF inhibitor project, cell-based, SK-MEL-5, cherry-picked, set 3 (AID 493073); format: functional
# T2 sequence (O75030 whole entry): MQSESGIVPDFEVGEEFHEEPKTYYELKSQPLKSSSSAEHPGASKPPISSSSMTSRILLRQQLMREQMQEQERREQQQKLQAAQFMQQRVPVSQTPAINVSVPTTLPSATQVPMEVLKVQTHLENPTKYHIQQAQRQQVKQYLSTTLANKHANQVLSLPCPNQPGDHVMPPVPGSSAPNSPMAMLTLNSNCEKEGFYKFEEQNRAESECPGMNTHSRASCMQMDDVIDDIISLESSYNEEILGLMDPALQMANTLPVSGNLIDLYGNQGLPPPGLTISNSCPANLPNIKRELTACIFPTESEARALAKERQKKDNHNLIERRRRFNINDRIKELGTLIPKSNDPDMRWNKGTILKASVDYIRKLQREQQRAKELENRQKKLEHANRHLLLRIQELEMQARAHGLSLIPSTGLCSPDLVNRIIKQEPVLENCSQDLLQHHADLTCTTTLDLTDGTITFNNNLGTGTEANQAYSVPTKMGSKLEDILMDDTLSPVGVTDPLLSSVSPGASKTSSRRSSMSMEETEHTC
# [4] = target: T3, Sentrin-specific protease 6 (Homo sapiens, UniProt Q9GZR1); test: SAR Analysis of small molecule inhibitors of Sentrin-specific protease 6 (SENP6) using a Luminescent assay. [Related pubchem assays (depositor defined):AID2582, AID2599]; format: functional
# T3 sequence (Q9GZR1 whole entry): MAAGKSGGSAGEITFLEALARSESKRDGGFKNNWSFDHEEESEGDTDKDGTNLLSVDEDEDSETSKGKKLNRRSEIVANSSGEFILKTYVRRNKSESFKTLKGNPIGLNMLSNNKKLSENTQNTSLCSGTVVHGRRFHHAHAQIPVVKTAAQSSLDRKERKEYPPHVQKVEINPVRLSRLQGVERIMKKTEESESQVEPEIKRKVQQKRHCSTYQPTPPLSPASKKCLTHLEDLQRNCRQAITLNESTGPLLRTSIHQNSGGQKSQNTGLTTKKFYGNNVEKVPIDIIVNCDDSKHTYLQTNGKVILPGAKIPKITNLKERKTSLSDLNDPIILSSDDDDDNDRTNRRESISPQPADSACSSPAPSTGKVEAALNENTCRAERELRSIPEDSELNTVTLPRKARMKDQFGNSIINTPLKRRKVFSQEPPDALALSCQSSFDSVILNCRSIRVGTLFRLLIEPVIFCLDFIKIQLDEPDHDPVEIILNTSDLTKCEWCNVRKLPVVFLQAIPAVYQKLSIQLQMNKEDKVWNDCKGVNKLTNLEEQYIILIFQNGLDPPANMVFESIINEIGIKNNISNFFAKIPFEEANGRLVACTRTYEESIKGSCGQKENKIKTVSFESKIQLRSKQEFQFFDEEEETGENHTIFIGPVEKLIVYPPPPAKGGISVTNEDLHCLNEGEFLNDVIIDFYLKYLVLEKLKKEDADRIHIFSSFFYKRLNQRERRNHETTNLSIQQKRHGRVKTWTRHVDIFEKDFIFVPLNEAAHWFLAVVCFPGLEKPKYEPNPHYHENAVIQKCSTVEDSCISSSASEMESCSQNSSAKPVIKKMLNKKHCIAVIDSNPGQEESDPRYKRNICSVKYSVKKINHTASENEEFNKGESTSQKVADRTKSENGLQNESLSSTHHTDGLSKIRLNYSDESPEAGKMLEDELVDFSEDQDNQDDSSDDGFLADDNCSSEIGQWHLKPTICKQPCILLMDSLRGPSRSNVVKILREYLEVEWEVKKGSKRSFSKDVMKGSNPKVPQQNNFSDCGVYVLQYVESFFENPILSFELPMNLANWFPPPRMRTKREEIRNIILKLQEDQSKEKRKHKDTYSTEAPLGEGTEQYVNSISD
# [5] = target: T1, Caspase-3; test: SAR Analysis of small molecule inhibitors of Sentrin-specific proteases (SENPs) using a Caspase-3 Selectivity assay. [Related pubchem assays (depositor defined):AID2540, AID2599, AID434973, AID489001]; format: functional
# [6] = target: T4, Sentrin-specific protease 8 (Homo sapiens, UniProt Q96LD8); format: functional;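 further: luminescence read-out of SENP8 inhibition, dose-response confirmation following an ultra-high-throughput screen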
# T4 sequence (Q96LD8 whole entry): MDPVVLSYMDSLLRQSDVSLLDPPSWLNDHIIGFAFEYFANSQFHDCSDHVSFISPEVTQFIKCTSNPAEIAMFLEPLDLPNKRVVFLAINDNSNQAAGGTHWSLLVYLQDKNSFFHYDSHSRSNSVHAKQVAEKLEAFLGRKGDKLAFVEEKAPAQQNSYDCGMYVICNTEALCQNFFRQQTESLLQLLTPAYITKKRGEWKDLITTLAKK
# [7] = tested on: A-375; test: A375 melanoma cell viability reduction, dose response, counter-screen for MITF modulator project, cherry-pick samples, set 2 (AID 540335); format: functional, cell-based; details: Homo sapiens
# [8] = target: T4, Sentrin-specific protease 8; test: SENP8 protease inhibitors, SAR follow-up, biochemical, luminescence (AID 504501); format: functional
Compound,IC50 [1],AC50 [2],AC50 [3],IC50 [4],IC50 [5],IC50 [6],AC50 [7],IC50 [8]
N#Cc1c(NC(=O)CSc2nc[nH]n2)sc2c1CCCCC2,45.2 µM (active),> 35 µM (active),0.371 µM (active),8.05 µM (active),40.4 µM (active),4.66 µM (active),> 35 µM (active),12.7 µM (active)
COc1ccc(C(N)c2nccc3cc(OC)c(OC)cc23)cc1OC (stereo unspecified),–,–,–,> 99 µM (inactive),> 99 µM (inactive),–,–,> 99 µM (inactive)
